According to patent US20240335444A1, “MODULATORS OF BCL6 PROTEOLYSIS AND ASSOCIATED METHODS OF USE” (Arvinas Operations, Inc., priority 2023, published 2024):

test system: OCI-Ly1; assay: Tumor growth of DLBCL cell line derived xenograft model OCI-Ly1; assay type: in vivo, mice; details: BCL6 sensitive tumor xenograft model (OCI-Ly1), 10 mg/kg BID
Protocol: Mice bearing subcutaneous tumors were orally (po) administered vehicle or Compound A at 1, 3, 10, or 30 mg/kg daily for 22 days (qd×22). Dosing began with tumors at an average of 140 mm^3. […] Statistical analyses were performed using 2-way ANOVA: p<0.0001 (****). Error bars represent standard error of the mean (±SEM).
Mice bearing subcutaneous tumors were orally (po) administered vehicle or Compound A at 1, 3, or 10 mg/kg bi-daily for 23 days (bid×23). Dosing began with tumors at an average of 170 mm^3. […] FIG. 7C depicts tumor lysate BCL6 protein levels 16-hours post-last dose analyzed by western blotting. Individual tumor BCL6 levels are shown in a scatter plot, mean is represented by the bar, determined by densitometry, normalized to GAPDH loading controls, and shown as a percentage of vehicle. Percent BCL6 degradation (%) relative to vehicle is shown above each arm. Statistical analyses were performed using 2-way ANOVA: p<0.0001 (****). Error bars represent standard error of the mean (±SEM).

First: CNC(=O)COc1cc2cc(Nc3nc(N4CCC(O[C@H]5C[C@H](N6CCC(c7ccc8c(c7F)CN(C7CCC(=O)NC7=O)C8=O)CC6)C5)CC4)ncc3Cl)ccc2n(C(C)C)c1=O (some centres unmarked) [Compound 81, 2-({6-[(5-chloro-2-{4-[(1r,3r)-3-{4-[2-(2,6-dioxopiperidin-3-yl)-4-fluoro-1-oxo-2,3-dihydro-1H-isoindol-5-yl]piperidin-1-yl}cyclobutoxy]piperidin-1-yl}pyrimidin-4-yl)amino]-2-oxo-1-(propan-2-yl)-1,2-dihydroquinolin-3-yl}oxy)-N-methylacetamide]
Second: CNC(=O)COc1cc2cc(Nc3nc(N4CCC(O[C@H]5C[C@H](N6CCC(c7ccc8c(c7Cl)CN(C7CCC(=O)NC7=O)C8=O)CC6)C5)CC4)ncc3Cl)ccc2n(C(C)C)c1=O (some centres unmarked) [Compound 163, 2-({6-[(5-chloro-2-{4-[(1r,3r)-3-{4-[4-chloro-2-(2,6-dioxopiperidin-3-yl)-1-oxo-2,3-dihydro-1H-isoindol-5-yl]piperidin-1-yl}cyclobutoxy]piperidin-1-yl}pyrimidin-4-yl)amino]-2-oxo-1-(propan-2-yl)-1,2-dihydroquinolin-3-yl}oxy)-N-methylacetamide]
The “Ly-1 TGI @ 10 mg/kg (BID)” value of the first is higher: 100% for the first, 95% for the second.

Compared with `CNC(=O)COc1cc2cc(Nc3nc(N4CCC(O[C@H]5C[C@H](N6CCC(c7cc(C)c8c(c7F)CN(C7CCC(=O)NC7=O)C8=O)CC6)C5)CC4)ncc3Cl)ccc2n(C(C)C)c1=O` (some centres unmarked) [Compound 208, 2-({6-[(5-chloro-2-{4-[(1r,3r)-3-{4-[2-(2,6-dioxopiperidin-3-yl)-4-fluoro-7-methyl-1-oxo-2,3-dihydro-1H-isoindol-5-yl]piperidin-1-yl}cyclobutoxy]piperidin-1-yl}pyrimidin-4-yl)amino]-2-oxo-1-(propan-2-yl)-1,2-dihydroquinolin-3-yl}oxy)-N-methylacetamide], `CNC(=O)COc1cc2cc(Nc3nc(N4CCC(O[C@H]5C[C@H](N6CC[C@@H](c7ccc8c(c7F)CN([C@H]7CCC(=O)NC7=O)C8=O)C(C)(C)C6)C5)CC4)ncc3Cl)ccc2n(C(C)C)c1=O` [Compound 209, 2-({6-[(5-chloro-2-{4-[(1r,3r)-3-[(4R)-4-{2-[(3S)-2,6-dioxopiperidin-3-yl]-4-fluoro-1-oxo-2,3-dihydro-1H-isoindol-5-yl}-3,3-dimethylpiperidin-1-yl]cyclobutoxy]piperiidn-1-yl}pyrimidin-4-yl)amino]-2-oxo-1-(propan-2-yl)-1,2-dihydroquinolin-3-yl}oxy)-N-methylacetamide] is higher in “Ly-1 TGI @ 10 mg/kg (BID)” value: 77% for the first, 104% for the second.

With `CNC(=O)COc1cc2cc(Nc3nc(N4CCC(O[C@H]5C[C@H](N6CCN(c7ccc8c(c7)CN([C@H]7CCC(=O)NC7=O)C8=O)C(C)(C)C6)C5)CC4)ncc3Cl)ccc2n(C(C)C)c1=O` [Compound 211, 2-({6-[(5-chloro-2-{4-[(1r,3r)-3-(4-{2-[(3S)-2,6-dioxopiperidin-3-yl]-1-oxo-2,3-dihydro-1H-isoindol-5-yl}-3,3-dimethylpiperazin-1-yl)cyclobutoxy]piperidin-1-yl}pyrimidin-4-yl)amino]-2-oxo-1-(proapn-2-yl)-1,2-dihydroquinolin-3-yl}oxy)-N-methylacetamide] the “Ly-1 TGI @ 10 mg/kg (BID)” value was 87%.
